Laboratory results reported in paper PMC4375101 (Chemistry & biology, 2009).

Molecular target: yeast Hsc70 (Ssa1p) (Saccharomyces cerevisiae, UniProt P10591)
Assay: single-turnover […]ATP ATPase assay with J-domain co-chaperone
Type: biochemical

Sequence of yeast Hsc70 (Ssa1p) (P10591 2-642): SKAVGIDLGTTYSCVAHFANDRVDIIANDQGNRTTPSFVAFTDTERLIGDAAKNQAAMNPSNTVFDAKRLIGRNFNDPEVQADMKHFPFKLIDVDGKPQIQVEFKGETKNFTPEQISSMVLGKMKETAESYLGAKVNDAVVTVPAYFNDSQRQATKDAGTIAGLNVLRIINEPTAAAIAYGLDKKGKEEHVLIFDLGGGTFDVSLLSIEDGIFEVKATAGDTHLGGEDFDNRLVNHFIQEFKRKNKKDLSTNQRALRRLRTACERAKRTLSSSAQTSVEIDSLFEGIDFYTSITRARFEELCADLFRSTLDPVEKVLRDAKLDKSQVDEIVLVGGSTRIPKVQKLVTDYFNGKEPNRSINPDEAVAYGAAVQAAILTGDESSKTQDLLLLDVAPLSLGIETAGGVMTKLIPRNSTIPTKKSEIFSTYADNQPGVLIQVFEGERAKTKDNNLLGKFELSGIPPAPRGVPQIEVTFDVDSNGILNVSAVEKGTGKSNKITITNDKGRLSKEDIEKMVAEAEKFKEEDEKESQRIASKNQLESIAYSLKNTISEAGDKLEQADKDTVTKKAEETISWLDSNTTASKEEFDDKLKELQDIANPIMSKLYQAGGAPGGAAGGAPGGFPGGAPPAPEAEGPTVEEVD
Sequence of yeast Hsc70 (Ssa1p) (P03070 whole entry, further chain): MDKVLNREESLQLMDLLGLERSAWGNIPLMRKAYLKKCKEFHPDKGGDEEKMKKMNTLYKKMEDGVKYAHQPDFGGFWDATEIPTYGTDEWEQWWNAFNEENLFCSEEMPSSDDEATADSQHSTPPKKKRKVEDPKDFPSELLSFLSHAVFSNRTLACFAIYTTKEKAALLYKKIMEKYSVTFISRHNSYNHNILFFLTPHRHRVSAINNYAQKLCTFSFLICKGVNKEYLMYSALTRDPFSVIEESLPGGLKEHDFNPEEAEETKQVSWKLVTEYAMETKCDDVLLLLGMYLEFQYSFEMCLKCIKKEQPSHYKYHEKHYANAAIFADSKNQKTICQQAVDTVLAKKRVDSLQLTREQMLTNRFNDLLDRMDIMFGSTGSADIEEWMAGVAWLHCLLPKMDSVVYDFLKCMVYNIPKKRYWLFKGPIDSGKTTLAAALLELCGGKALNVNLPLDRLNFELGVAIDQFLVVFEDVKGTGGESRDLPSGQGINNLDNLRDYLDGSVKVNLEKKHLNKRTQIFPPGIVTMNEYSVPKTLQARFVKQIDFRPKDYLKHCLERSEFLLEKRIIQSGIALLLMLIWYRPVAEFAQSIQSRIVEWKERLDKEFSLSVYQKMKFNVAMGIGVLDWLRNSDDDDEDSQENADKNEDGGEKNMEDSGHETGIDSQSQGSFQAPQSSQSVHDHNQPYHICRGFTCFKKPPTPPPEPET

Compound `CCCCCCCCCCCCC/C=C/[C@@H](O)[C@H](COC1O[C@H](CO)[C@H](O)[C@H](OS(=O)(=O)O)[C@H]1O)NC(=O)CC12CC3CC(CC(C3)C1)C2` (stereo partly shown) [adaSGC] has a Ki of roughly 10 µM.
